Laboratory results taken from ChEMBL document CHEMBL5608162, “Design, synthesis and biological evaluation of 6-chloro-quinolin-2-one derivatives as novel FXIa inhibitors” (Bioorg Med Chem Lett, 2024).
≈ marks a conversion by molar mass, not a printed value.

Key:
[1] = AUC in iv dosed rat; type: ADME, organism-based; settings: in vivo
[2] = Solubility of compound at pH 8; type: physicochemical; settings: buffer
[3] = Cmax in iv dosed rat; type: ADME, organism-based; settings: in vivo
[4] = Half life in iv dosed rat; type: ADME, organism-based; settings: in vivo
[5] = Volume of distribution at steady state in iv dosed rat; type: ADME, organism-based; settings: in vivo, read-out: Vdss
[6] = Tmax in iv dosed rat; type: ADME, organism-based; settings: in vivo

Description for Plasma: Anticoagulation activity in plasma (unknown origin) assessed as concentration required for twice the activated partial thromboplastin time

SMILES | 2aPTT (Plasma) [µM] | also measured
CC[C@@H](C(=O)Nc1ccc(C(N)=O)c(F)c1)n1cc(OC)c(-c2cc(Cl)ccc2-n2cc(C(F)(F)F)nn2)cc1=O | 3.8 | –
CN(Cc1cc(=O)[nH]c2ccc(Cl)cc12)C(=O)[C@H](Cc1ccc(NC(=O)C2CCCC2)cc1)NC(=O)c1ccc(C(=O)O)s1 | 11.2 | –
CC1CC1C(=O)Nc1ccc(C[C@H](NC(=O)c2ccc(C(=O)O)s2)C(=O)N(C)Cc2cc(=O)[nH]c3ccc(Cl)cc23)cc1 (stereo not given in full) | 6.8 | AUC [1]: 313 ng·h/mL; solubility [2]: Soluble; Cmax [3]: 2120 ng/mL; half-life [4]: 48.6 min; Vd [5]: 40 L/kg; Tmax [6]: 1.2 min
CN(Cc1cc(=O)[nH]c2ccc(Cl)cc12)C(=O)[C@H](Cc1ccc(NC(=O)C2CCCCC2)cc1)NC(=O)c1ccc(C(=O)O)s1 | 14 | –
CN(Cc1cc(=O)[nH]c2ccc(Cl)cc12)C(=O)[C@H](Cc1ccc(NC(=O)C2CC2)cc1)NC(=O)c1ccc(C(=O)O)s1 | 6.9 | –
COC(=O)Nc1ccc(C(=O)N[C@@H](Cc2ccccc2)C(=O)N(C)Cc2cc(=O)[nH]c3ccc(Cl)cc23)cc1 | 16.7 | solubility ([2]; read-out: solubility): 17.3 µg/mL (≈ 31.6 µM)
CN(Cc1cc(=O)[nH]c2ccc(Cl)cc12)C(=O)[C@H](Cc1ccc(NC(=O)C2CC2(C)C)cc1)NC(=O)c1ccc(C(=O)O)s1 (stereo not given in full) | 9.8 | –
CN(Cc1cc(=O)[nH]c2ccc(Cl)cc12)C(=O)[C@H](Cc1ccc(NC(=O)C2CCC2)cc1)NC(=O)c1ccc(C(=O)O)s1 | 13.3 | –
